Test results from patent US9822068B2, “Inhibitors of fatty acid amide hydrolase (FAAH) enzyme with improved oral bioavailability and their use as medicaments” (THE REGENTS OF THE UNIVERSITY OF CALIFORNIA, priority 2014, dated 2017).
≈ marks a conversion by molar mass, not a printed value. Where two headings read alike, the source gives them in different places.

Key:
[1] = Pharmacokinetic experiment in cannulated Sprague-Dawley rats (PO and IV); type: in vivo; settings: plasma, rat; for bioavailability: PO 10 mg/kg vs IV 3 mg/kg, read-out: Oral bioavailability (F %)
Method: Pharmacokinetic Experiment and Analysis
Compounds were administered orally (PO) and intravenously (IV) to cannulated Sprague-Dawley rats at 10 and 3 mg/kg, respectively. Vehicle was: PEG400/Tween 80/Saline solution at 10/10/80 (% in volume), respectively. Three animals per dose were treated. Blood samples at 0, 15, 30, 60, 120, 240, 480 and 1440 min after administration were collected for PO arm. Blood samples at 0, 5, 15, 30, 60, 120 and 240 min after administration were collected for IV arm. Plasma was separated from blood by centrifugation for 15 min at 3500 rpm a 4° C., collected in a Eppendorf tube and frozen (−80° C.). Control animals treated with vehicle only were also included in the experimental protocol.
Preparation of Samples, Standard Curve and QC Samples for UPLC-MS Analysis
Samples were thawed in an ice bath and after a short centrifugation transferred (50 μL) into a 96-deepwell plate and added with 150 μL of acetonitrile spiked with 200 nM Warfarin (the Internal Standard, I.S.). After agitation (3 min) the plate was centrifuged at 3000 g for 10 min at 4° C. 80 μL of supernatant was then transferred in a 96-well plate and added with 80 μL of water. Standard compound was spiked in neat solvent (PBS pH 7.4 added with 10% acetonitrile) to prepare a calibration curve over the 1 nM-10 μM range. Three quality controls (QCs) samples were also prepared spiking the compound in blank rat plasma to final 20, 200 and 2000 nM concentrations. Calibrators and QCs were crashed with acetonitrile spiked with the I.S. as described for the plasma samples. Dosing solutions, previously diluted 2000 fold in the neat solvent were also included in the samples and tested.
Compounds plasma levels were monitored on a Xevo TQ UPLC-MS/MS system (Waters, Milford USA), using the calibration curve and the internal standard (Warfarin). Chromatography was carried out on a Acquity BEH C18 column (2.1×50 mmID, 1.7 m particle size, Waters, Milford USA). Flow rate was 0.5 mL/min. The mobile phase was (A) H2O/0.1% formic acid; (B) MeCN/0.1% formic acid. A linear gradient was applied from 5 to 100% B in 2 min. 3 μL of each sample were loaded on column. MS parameters and multiple reaction monitoring (MRM) transitions were carefully tuned for each compound. Plasma levels data were analyzed using PKSolutions excel application (Summit Research Service, USA) to derive the most important pharmacokinetic parameters.
The oral bioavailability (F %) data, and the Area Under the Curve (AUC) data (ng×min/mL) corresponding to the IV (3 mg/kg) and PO (10 mg/kg) dose of selected compounds described in the Examples are reported in Table 3. Their F % data are in the range from 35 to 87.

[2] = Aqueous kinetic solubility assay; type: physicochemical; settings: phosphate buffered saline, aqueous buffer, kinetic from dmso stock, PBS pH 7.4, target 250 μM, 2.5% DMSO, 25° C.
Method: Aqueous Kinetic Solubility Assay
The aqueous kinetic solubility was determined from a 10 mM DMSO stock solution of test compound in Phosphate Buffered Saline (PBS) at pH 7.4.
The study was performed by incubation of an aliquot of 10 mM DMSO stock solution in PBS (pH 7.4) at a target concentration of 250 μM resulting in a final concentration of 2.5% DMSO. The incubation was carried out under shaking at 25° C. for 24 h followed by centrifugation. The supernatant was analyzed by UPLC/MS for the quantification of dissolved compound by UV at a specific wavelength (215 nm).
The aqueous kinetic solubility (in μM) was calculated by dividing the peak area of the supernatant by the peak area of the test compound reference and further multiplied by the concentration of the test compound reference and dilution factor.
The UPLC/MS analyses were performed on a Waters ACQUITY UPLC/MS system consisting of a SQD (Single Quadrupole Detector) Mass Spectrometer equipped with an Electrospray Ionization interface and a Photodiode Array Detector. The PDA range was 210-400 nm. The analyses were run on an ACQUITY UPLC BEH C18 column (50×2.1 mmID, particle size 1.7 m) with a VanGuard BEH C18 pre-column (5×2.1 mmID, particle size 1.7 μm). The mobile phase was 10 mM NH4OAc in H2O at pH 5 adjusted with AcOH (A) and 10 mM NH4OAc in MeCN—H2O (95:5) at pH 5 (B). Electrospray ionization in positive and negative mode was applied in the mass scan range 100-500 Da.

[3] = target: human FAAH-1 (Homo sapiens (Human), UniProt O00519); experiment: In vitro human FAAH fluorescent assay; type: biochemical; settings: human FAAH-1 membrane preparation from HEK-293, 50 min pre-incubation at 37° C.; read-out: h-FAAH IC50
Method: In Vitro Human FAAH Fluorescent Assay
Human recombinant FAAH was obtained from a HEK-293 cell line stably overexpressing human FAAH-1 enzyme. Cells were grown in Dulbecco's Modified Eagle Medium (DMEM) medium containing 10% FBS, 1% pen/strep, 1% glutamine and 500 μg/mL G418. To obtain membrane preparation cells were scraped off with cold PBS and collected by centrifugation (500×g, 10 min, 4° C.); the cell pellet was re-suspended in 20 mM Tris-HCl pH 7.4, 0.32M sucrose, disrupted by sonication (10 pulses, 5 times) and centrifuged (800×g, 15 min, 4° C.); the collected supernatant was centrifuged at 105,000×g for 1 h at 4° C. and the pellet was re-suspended in PBS.
The fluorescent assay to measure FAAH activity was performed in 96 wells black plates: 2.5 μg of human FAAH-1 membrane preparation were pre-incubated for 50 min at 37° C., in 180 µL of assay buffer (50 mM TrisHCl pH 7.4, 0.05% Fatty acid-free-BSA) with 10 μL of inhibitor (at appropriate concentration in DMSO) or 10 μL DMSO to measure FAAH total activity. The background (no activity) samples were prepared using 180 μL of assay buffer without human FAAH-1 and 10 μL of DMSO. The reaction was then started by the addition of 10 μL of a 40 μM substrate solution (N. 10005098, Cayman Chemical) dissolved in ethanol, and used at a final concentration of 2 μM. The reaction was carried out for 30 min at 37° C. and fluorescence was measured with a Tecan Infinite M200 nanoquant plate reader (excitation wavelength 350 nm/emission wavelength 460 nm).
(§1) Concentrations causing half-maximal inhibition of FAAH, IC50 values, were determined by non-linear regression analysis of the Log [concentration]/response curves generated with mean replicate values using a four parameter Hill equation curve fitting with GraphPad Prism 5 (GraphPad Software Inc., CA—USA).

[4] = target: Rat FAAH (Rattus norvegicus (Rat), UniProt P97612); experiment: In vitro rat FAAH radiometric assay; type: biochemical; settings: rat brain homogenate, 10 min pre-incubation at 37° C.; read-out: r-FAAH IC50
Method: In Vitro Rat FAAH Radiometric Assay
Rat FAAH was prepared from male Sprague Dawley rat brains, homogenized in a potter in 20 mM of Tris HCl pH 7.4, 0.32 M sucrose.
The radiometric assay used to measure FAAH activity was performed in Eppendorf tubes: 50 μg of total rat brain homogenate were pre-incubated in 445.5 μL of assay buffer (50 mM Tris-HCl pH 7.4, 0.05% Fatty acid-free-bovine serum albumin (BSA)) with 4.5 μL of inhibitor (at appropriate concentration in DMSO) or DMSO alone (to measure FAAH total activity) for 10 min at 37° C. The blank (no activity control) was prepared using 445.5 μL of assay buffer and 4.5 μL of DMSO without the 50 μg of total rat brain homogenate.
After 10 min of pre-incubation with test compounds, the reaction was started by adding of 50 μL of substrate and incubating for 30 min at 37° C. The substrate was prepared in assay buffer in order to achieve the final concentration of 1 μM arachidonoyl ethanolamide (Cayman Chemical N. 90050) and 0.6 nM anandamide [ethanolamine-1-^3H] (American Radiolabeled Chemicals Inc, ART. 0626, Conc. 1 mCi/mL, S.A. 60 Ci/mmol). The reaction was stopped by adding cold 1:1 CHCl3/MeOH. After 10 min of centrifugation (845×g at 4° C.) 600 μL of aqueous phase were transferred into scintillation vials previously filled with 3 mL of scintillation fluid (Ultima Gold™, Perkin Elmer Inc., Cat. 6013329). Radioactivity was measured by liquid scintillation counting (MicroBeta2 LumiJET Perkin Elmer Inc.).
as §1

[5] = IV, 3 mg/kg, read-out: AUC IV (3 mg/kg) (converted)
[6] = PO, 10 mg/kg, read-out: AUC PO (10 mg/kg) (converted)

human FAAH-1, sequence (O00519 whole entry): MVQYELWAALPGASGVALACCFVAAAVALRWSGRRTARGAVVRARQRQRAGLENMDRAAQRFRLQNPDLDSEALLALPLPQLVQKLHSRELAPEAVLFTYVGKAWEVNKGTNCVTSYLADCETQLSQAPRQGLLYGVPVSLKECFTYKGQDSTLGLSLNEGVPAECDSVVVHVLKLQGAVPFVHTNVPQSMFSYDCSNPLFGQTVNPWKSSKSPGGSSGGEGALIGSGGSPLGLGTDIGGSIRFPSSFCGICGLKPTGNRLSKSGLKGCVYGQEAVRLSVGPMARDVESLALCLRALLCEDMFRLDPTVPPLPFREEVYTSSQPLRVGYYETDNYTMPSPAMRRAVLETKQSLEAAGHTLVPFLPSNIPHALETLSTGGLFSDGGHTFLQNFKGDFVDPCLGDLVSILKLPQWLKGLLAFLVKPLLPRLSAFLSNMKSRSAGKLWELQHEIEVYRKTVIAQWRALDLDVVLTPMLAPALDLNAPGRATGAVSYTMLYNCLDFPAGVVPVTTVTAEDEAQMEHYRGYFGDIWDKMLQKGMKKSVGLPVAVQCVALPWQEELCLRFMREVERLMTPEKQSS
Rat FAAH, sequence (P97612 whole entry): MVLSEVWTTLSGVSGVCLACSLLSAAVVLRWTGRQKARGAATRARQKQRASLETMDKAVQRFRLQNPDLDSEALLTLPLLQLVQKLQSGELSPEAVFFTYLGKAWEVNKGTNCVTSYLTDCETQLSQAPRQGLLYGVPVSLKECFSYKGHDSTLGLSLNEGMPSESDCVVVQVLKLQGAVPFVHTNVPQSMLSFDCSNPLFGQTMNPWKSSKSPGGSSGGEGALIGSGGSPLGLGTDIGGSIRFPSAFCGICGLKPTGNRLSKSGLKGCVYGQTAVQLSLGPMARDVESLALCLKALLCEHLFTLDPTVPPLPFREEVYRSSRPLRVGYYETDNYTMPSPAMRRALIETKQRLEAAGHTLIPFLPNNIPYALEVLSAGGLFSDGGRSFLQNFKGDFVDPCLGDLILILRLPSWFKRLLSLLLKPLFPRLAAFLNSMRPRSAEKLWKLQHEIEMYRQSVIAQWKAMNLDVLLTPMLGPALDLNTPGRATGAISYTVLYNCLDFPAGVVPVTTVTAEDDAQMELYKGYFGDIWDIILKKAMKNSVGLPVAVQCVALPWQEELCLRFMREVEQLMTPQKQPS

Row | SMILES | bioavailability [1] [%] | AUC [1, 5] [ng·h/mL] | AUC [1, 6] [ng·h/mL] | solubility kinetic at 24 h [2] [µM] | IC50 [3] [nM] | IC50 [4] [nM]
1 | NS(=O)(=O)c1cccc(-c2cc(OC(=O)NC3CCCCC3)ccc2F)c1 [Example 2, [4-fluoro-3-(3-sulfamoylphenyl)phenyl] N-cyclohexylcarbamate] | 35 | 746 | 867 | 28 (≈ 11 µg/mL) | 11 | 0.7
2 | NC(=O)c1cccc(-c2cc(OC(=O)NC3CCC3)ccc2F)c1 [Example 3, [3-(3-carbamoylphenyl)-4-fluoro-phenyl] N-cyclobutylcarbamate] | 79 | 498 | 1310 | 33 (≈ 10.8 µg/mL) | 1.8 | 0.9
